# Assay results: PMC8838631, “Pistacia lentiscus L. Distilled Leaves as a Potential Cosmeceutical Ingredient: Phytochemical Characterization, Transdermal Diffusion, and Anti-Elastase and Anti-Tyrosinase Activities” (Molecules, 2022)
# Read-outs that look alike come from different tables or passages of the source.
# Tests used:
# [1] = DPPH radical scavenging assay
# Procedure: The DPPH scavenging test was carried out using the method mentioned by Brand-Williams et al.. The percentage of DPPH scavenging was measured using Equation (1): % DPPH scavenging = (ODcontrol − ODsample)/ODcontrol × 100(1)
# [2] = biological target: porcine pancreatic elastase (Sus scrofa, UniProt P00772); experiment: Elastase inhibition assay (N-succinyl-Ala-Ala-Ala-p-nitroanilide substrate); type: biochemical; conditions: for remaining activity at 100 µg/mL: read-out: Elastase activity (% of control)
# porcine pancreatic elastase, sequence (P00772 27-266): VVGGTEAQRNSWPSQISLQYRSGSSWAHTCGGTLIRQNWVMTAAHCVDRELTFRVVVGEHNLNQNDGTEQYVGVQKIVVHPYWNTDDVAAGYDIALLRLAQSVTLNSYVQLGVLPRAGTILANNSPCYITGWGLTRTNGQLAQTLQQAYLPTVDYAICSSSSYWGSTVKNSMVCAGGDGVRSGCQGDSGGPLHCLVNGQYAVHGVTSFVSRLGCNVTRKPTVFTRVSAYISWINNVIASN
# Procedure: The elastase inhibition activity of EAE and its pure molecules FC and FM2 was evaluated at different concentrations ranging from 12 to 100 µg/mL. […] At a concentration of 100 µg/mL, the percentages of elastase activity with EAE, FC, and FM2 were equal to 12%, 42%, and 29%, respectively. Besides, the percentage of elastase activity with Epigallocatechin gallate was 8%.
# The elastase inhibitory effect of our samples was evaluated as described by Angelis et al., using the enzyme porcine pancreatic elastase and the substrate N-succinyl-Ala-Ala-Ala-p-nitroanilide. The extract and the pure molecules were evaluated at concentrations ranging between 12 and 100 µg/mL. Epigallocatechin gallate was used as a positive control. The elastase inhibition was measured using Equation (3):% Elastase inhibition = (ODcontrol − ODsample) ODcontrol × 100(3)
# [3] = Transdermal diffusion, Franz diffusion cell with strat-M membrane; type: in vitro ADME; conditions: 5% EAE-hydro-cream, 24 h of incubation; for µg of Crossed Molecule/g of 5% Hydro-cream: strat-M membrane, 37 °C, mean ± SD (n = 9)
# Procedure: The transdermal diffusion of 5% EAE-hydro-cream formulation was evaluated using Franz diffusion cell and start-M membrane. […] The receptor medium of the Franz cell was analyzed by HPLC-MS to determine the bioactive compounds that crossed the strat-M membrane after 24 h of incubation. […] The bioactive molecules FC and FM2 that crossed the strat-M membrane were subjected to quantification. […] Moreover, FC has crossed the membrane but with a lower concentration than FM2 (Table 4).
# Transdermal diffusion was evaluated using a Franz diffusion cell system, as mentioned by Chuang et al. with certain modifications. Firstly, the start-M membrane, a model membrane for transdermal diffusion, was mounted in a Franz diffusion cell. Then, 5 mL of 0.1 M sodium phosphate buffer (PBS) and 1 g of extract formulation cream were placed in the receptor and the donor compartments, respectively. The extract formulation cream was prepared by mixing the hydro-cream base emulsion purchased from Galderma and the EAE at 5% (w/w) by a mechanical stirrer (VMI Rayneri, Francelab, Paris, France). The receptor medium of the Franz cell was maintained at 37 °C and stirred with a magnetic stirrer at 400 rpm. After 24 h, the receptor medium was recovered, evaporated, freeze-dried, and then 4 mL of MeOH was added. The sample was filtered through a 0.45 filter and analyzed by HPLC-MS to determine the bioactive molecules that were released from the start-M membrane. The bioactive molecules that crossed the start-M membrane were then quantified, as described in Section 4.4.6, by injecting the receptor medium through HPLC-DAD at a concentration of 10 mg/mL. Results were expressed as µg of molecule crossed the membrane/g of 5% EAE-hydro-cream.
# mushroom tyrosinase = experiment: Tyrosinase inhibition assay (L-DOPA substrate); type: biochemical; conditions: for IC50 of tyrosinase activity: L-DOPA; for Tyrosinase activity (% of control): at a concentration of 100 µg/mL
# Procedure: EAE and its pure molecules FC and FM2 were evaluated in vitro for their tyrosinase inhibition activity.
# The inhibitory effect of our samples on the mushroom tyrosinase enzyme was analyzed using the substrate L-DOPA [71]. The extract and the pure molecules were evaluated at concentrations ranging between 12 and 200 µg/mL. […] The tyrosinase inhibition was measured as follows:% Tyrosinase inhibition = (ODcontrol − ODsample)/ODcontrol × 100(2)
# [4] = Cell viability / cytotoxicity, MTT assay; conditions: mouse
# Procedure: (§1) The cell viability of EAE and the two major isolated molecules FC and FM2 were evaluated against B16 cells.
# (§2) B16 cells (C57BL/6, Resource No. RBRC-RCB0557) used in this study were prepared as described by Elloumi et al..
# (§3) The MTT assay was performed to evaluate the cytotoxicity effect of our samples on B16 cells. Different sample concentrations (2.5–80 µg/mL) were applied to the Cells. The […] was measured as follows:% Cell viability = (ODsample/ODcontrol) × 100(4)
# B16 cells = experiment: Cell viability / cytotoxicity, MTT assay; conditions: B16 cells, MTT; viability above 70% considered non-toxic (ISO 10993-5)
# Procedure: as §1, §2, §3
# [5] = biological target: T1, cellular tyrosinase in B16 cells (Mus musculus, UniProt P11344); experiment: Cellular tyrosinase activity assay on B16 cells; type: cell-based
# T1 sequence (P11344 19-533): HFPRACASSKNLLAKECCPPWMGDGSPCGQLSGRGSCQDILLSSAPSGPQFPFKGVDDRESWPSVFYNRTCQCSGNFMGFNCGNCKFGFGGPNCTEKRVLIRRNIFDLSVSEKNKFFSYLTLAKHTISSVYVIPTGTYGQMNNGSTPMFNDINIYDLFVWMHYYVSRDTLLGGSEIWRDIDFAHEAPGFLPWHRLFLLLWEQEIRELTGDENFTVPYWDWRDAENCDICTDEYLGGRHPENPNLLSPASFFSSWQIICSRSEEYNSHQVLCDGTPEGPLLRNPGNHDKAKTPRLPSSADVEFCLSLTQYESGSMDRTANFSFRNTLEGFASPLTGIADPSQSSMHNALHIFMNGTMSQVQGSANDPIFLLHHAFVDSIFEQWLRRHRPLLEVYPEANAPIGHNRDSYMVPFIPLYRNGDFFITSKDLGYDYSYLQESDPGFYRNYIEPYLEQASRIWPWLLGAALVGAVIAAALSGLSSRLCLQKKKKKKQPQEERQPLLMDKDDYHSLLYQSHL
# Procedure: The cellular tyrosinase inhibition activity on B16 cells was evaluated using EAE, FC, and FM2.
# as §2
# The cellular tyrosinase activity on B16 cells was evaluated as described by Kamei et al. with some modifications. Briefly, B16 cells were incubated in a 96-well plate (25 × 10^3 cells/well) for 24 h. […] After that, the cells were washed with PBS and lysed with PBS supplemented with 1% of Triton-X/PBS, after 48 h of samples exposure. A volume of 100 µL of 0.1% L-DOPA was added to the wells for 1 h. […] The cellular tyrosinase inhibition was measured as follows:% Cellular tyrosinase inhibition = (ODcontrol − ODsample)/ODcontrol × 100(5)
# [6] = at a concentration of 100 µg/mL
SMILES,Crossing of the strat-M membrane (detected in receptor medium by HPLC-MS) [3],µg of Crossed Molecule/g of 5% Hydro-cream [3],IC50 of tyrosinase activity (mushroom tyrosinase),Tyrosinase activity (% of control) (mushroom tyrosinase),"remaining activity at 100 µg/mL [2, 6]",Concentration that did not decrease the percentage of cell viability (B16 cells),also measured
O=C1O[C@H]([C@@H](O)CO)C(O)=C1O [Ascorbic acid],–,–,–,–,–,–,DPPH IC50 [1]: 13.85 µg/mL
"O=C(O[C@@H]1Cc2c(O)cc(O)cc2O[C@@H]1c1cc(O)c(O)c(O)c1)c1cc(O)c(O)c(O)c1 [Epigallocatechin gallate, reference compound]",–,–,–,–,–,–,"Elastase activity (% of control) [2, 6]: 8%; IC50 of elastase activity ([2]; porcine pancreatic elastase): 12 µg/mL"
"C[C@@H]1O[C@@H](Oc2c(-c3ccc(O)c(O)c3)oc3cc(O)cc(O)c3c2=O)[C@H](O)[C@H](O)[C@H]1O [FC, quercetin-3-O-rhamnoside]",have crossed the membrane,3.161 ± 0.006 µg/g of 5% hydro-cream,49 µg/mL,9%,42%,≤ 2500 ng/mL,IC50 [2]: 192 µM; IC50 [4]: 6.4 ± 0.53 µg/mL; IC50 [5]: 7.49 µM
"C[C@@H]1O[C@@H](Oc2c(-c3cc(O)c(O)c(O)c3)oc3cc(O)cc(O)c3c2=O)[C@H](O)[C@H](O)[C@H]1O [FM2, myricetin-3-O-rhamnoside]",have crossed the membrane,52.102 ± 0.001 µg/g of 5% hydro-cream,34 µg/mL,10%,29%,≤ 10000 ng/mL,"IC50 ([2]; porcine pancreatic elastase, read-out: IC50 of elastase activity (converted)): 96.9 µM; IC50 ([4]; B16 cells): 19.3 ± 1.22 µg/mL; IC50 ([5]; B16 cells, 48 h of samples exposure, read-out: Cellular tyrosinase inhibition IC50 (converted)): 9.91 µM"
"O=c1cc(CO)occ1O [kojic acid, reference compound]",–,–,–,7%,–,–,–
O=c1c(O[C@@H]2O[C@H](CO)[C@H](O)[C@H](O)[C@H]2O)c(-c2ccc(O)c(O)c2)oc2cc(O)cc(O)c12 [quercetin-3-O-galactoside],have crossed the membrane,–,–,–,–,–,–
